Measured values reported in patent US20100203001A1, “PROCESS FOR FORMING DISULFIDE BRIDGES” (APLAGEN GMBH, priority 2007, published 2010).
Entries after “also recorded” stand apart in the source; their conditions may differ. Where two headings read alike, the source gives them in different places.

Columns and labels:
[1] = tests of the capacity to promote the formation of disulfide bridges; assay type: biochemical
Experimental: The tests were carried out as described previously (see above). The substance tested and the amounts tested are stated in each case.

BB57 = experiment: cyclization (oxidation) of EPO mimetic peptide BB57 to BB57C in air in water, monitored by HPLC or Ellman's test; assay type: biochemical
human hair = experiment: oxidation of reduced human hair by heterocyclic compound with metal ions, thiol groups by Ellman's reagent
Experimental: To this end, for each measuring point the disulfide bridges of 5 mg hair were first reduced using ammonium thioglycolate/ammonium thiolactate (commercially available formulations for permanent waves) in order to open them. Subsequently, the reduction solution is removed and the hair was washed with water several times. Then, the hair was subjected to the different oxidation mixtures in order to again close the disulfide bridges. After filtrating these solutions, the amount of thiol groups was determined using the Ellman's reagent. Thereby, a statement on the speed and efficiency of the oxidation step and thus the renewed closure of the disulfide bridges can be made.
In several experiments combinations of different metal additives in place of higher amounts of a single salt component are also used. The amounts in the mixture “artificial tap water” described below are based on the maximum values of the regulation for tap water of the FRG, wherein the following combination of metal ions was used: 0.2 mg/L iron ([…], 5 mg/L zinc (Zn^2+), 2 mg/L copper (Cu^2+) and some hardening components 100 mg/L calcium (Ca^2+) and 50 mg/L magnesium (Mg^2+).

hair = experiment: oxidation of hair reduced with ammonium thioglycolate Wave-Lotion, free thiol groups by Ellman's reagent (412 nm); conditions: air, room temperature, 3 days
Experimental: The solution is removed and the hair is then washed 6 times with 400 μl H2O each time.
For determination of the free thiol groups still remaining, after removing the reaction solution the hair is reacted with fEllman's reagent (5,5′-dithiobis(2-nitrobenzoic acid), DTNB). […] The hair samples are put in 200 μl each of 100 mM phosphate buffer, pH 8.0 and 1 mM EDTA, and 300 μl of a 1 mM DTNB solution in the same EDTA-containing buffer. The solution is analyzed after a few minutes in a UV-Vis spectrometer.

EPO mimetic peptide = experiment: cyclization of an EPO mimetic peptide that can only be cyclized with great difficulty; assay type: biochemical; conditions: 10 mg/ml caffeine
Experimental: Some of the EPO mimetic peptides can only be cyclized with great difficulty. An example is the following peptide:
The yield after approx. 21 h in solution was already >90%.

oxytocin, reduced (OxyR) = oxytocin, reduced (OxyR) (Homo sapiens, UniProt P01178); experiment: cyclization of reduced oxytocin-derived peptide (OxyR) to oxytocin (Oxy) in air, HPLC; assay type: biochemical; conditions: GSSG optionally added with caffeine
Experimental: The reaction mixture was analyzed by HPLC at regular intervals, in order to determine the contents of OxyR and the product oxytocin (Oxy).

[2] = in combination with artificial tap water salt mixture
[3] = single agent in water (10 mg/ml caffeine or 5 mg/ml GSSG)

With `O=c1ccc(=O)[nH][nH]1` [1,2-dihydro-3,6-pyridazinedione] the “capacity to promote the formation of disulfide bridges” value (shortened to “capacity to promote the formation”) [1] was “active”.
With `Cn1ccc(=O)[nH]c1=O` [1-methyl-uracil] the “capacity to promote the formation” value [1] was “good activity”.
With `Nc1ccnc(N)n1` [2,4-diaminopyrimidine] the “capacity to promote the formation” value [1] was “do not have the capacity to promote the formation of disulfide bridges”.
In the case of `Cc1cc(O)nc(O)n1` [2,4-dihydroxy-6-methylpyrimidine], the “capacity to promote the formation” value [1] is reported as “active”.
For `Cc1cc(O)nc(C)n1` [2,4-dimethyl-6-hydroxypyrimidine], the “capacity to promote the formation” value [1] was “active”.
In the case of `Cc1cc(O)nc(C(C)C)n1` [2-isopropyl-6-methyl-4-pyrimidinol], the “capacity to promote the formation” value [1] is reported as “active”.
For `Cc1nc(O)cc(O)n1` [4,6-dihydroxy-2-methylpyrimidine], the “capacity to promote the formation” value [1] was “active”.
For `Oc1cc(O)ncn1` [4,6-dihydroxy-pyrimidine], the “capacity to promote the formation” value [1] was “active”.
For `O=C(O)CN(CCN(CC(=O)O)CC(=O)O)CC(=O)O` [EDTA, ethylenediaminetetraacetic acid], the “effect of complexing agent on the strong effect of the iron ions” value (BB57; alloxan plus iron ions (3 μM) with two equivalents EDTA) was “slightly weakened”.
With `O=C1NC(=O)C(=O)C(=O)N1` [alloxan, alloxan monohydrate] the “effect of iron(III) ions on oxidation” value (BB57) was “accelerating effect”, the reaction time (BB57) was “less than an hour” and the “time until almost completely cyclised” value (BB57) was “about 2 h”. For the same molecule, the “reverse oxidation of the thiols in hair” value (human hair; 0.1% alloxan solution with low amounts of iron(III) ions, after 10 minutes) was “almost complete reverse oxidation”, the “advantage due to the addition of salt” value (human hair; alloxan with iron(III) chloride or artificial tap water, control after 10 minutes) was “small advantage” and the “oxidation of reduced hair” value (human hair; [2]) was “completely oxidize the hair”. For the same molecule, the “capacity to promote the formation” value [1] was “Active”.
In the case of `Nc1cnccn1` [aminopyrazine], the “capacity to promote the formation” value [1] is reported as “do not have the capacity to promote the formation of disulfide bridges”.
For `O=C1CC(=O)NC(=O)N1` [barbituric acid], the “capacity to promote the formation” value [1] was “Active”.
For `Cn1c(=O)c2c(ncn2C)n(C)c1=O` [caffeine], the “oxidation of the thiol groups of reduced hair” value (hair; combination 10 mg/ml caffeine and 5 mg/ml GSSG) was “almost quantitative oxidation of the thiol groups”, the “oxidation of the thiol groups of reduced hair” value (hair; [3]) was “partial oxidation of the thiol groups” and the “reaction time until complete conversion” value (BB57) was “about 10 h”. The time of cyclisation (BB57) was “about an hour; also recorded: shortened”, the “time until complete conversion” value (BB57) was “about 15 h” and the “time until conversion is quantitative” value (BB57) was “ten”. The “time until oxidation is completed” value (BB57) was “approx. 24 h”, the “strength as catalysator on hair” value (human hair; comparison with alloxan) was “weaker compared to alloxan” and the “duration of the reaction compared with alloxan” value (human hair; [2]) was “takes longer”. For the same molecule, the “oxidation of reduced hair” value (human hair; [2]) was “completely oxidize the hair” and the “time until cyclization successful” value (EPO mimetic peptide) was ≤ 24 h.
In the case of `O=S(=O)([O-])[O-].[Fe+2]` [iron(II) sulfate], the “accelerating effect on the cyclisation of BB57” value (BB57) is reported as “no activity”.
For `Nc1nc(N)nc(N)n1` [melamine], the “capacity to promote the formation” value [1] was “do not have the capacity to promote the formation of disulfide bridges”.
In the case of `Nc1cc(N2CCCCC2)nc(N)[n+]1[O-]` [minoxidil, 6-(1-piperidinyl)-2,4-pyrimidinediamine-3-oxide], the “time until oxidation is completed” value (BB57; 0.7 mg BB57 and 0.3 mg substance in 1 ml distilled water, in the air, HPLC) is reported as “approx. 29 h”.
For `NC(=O)c1cnccn1` [pyrazine amide], the “capacity to promote the formation” value [1] was “do not have the capacity to promote the formation of disulfide bridges”.
In the case of `O=C(O)c1cnccn1` [pyrazine-carboxylic acid], the “capacity to promote the formation” value [1] is reported as “do not have the capacity to promote the formation of disulfide bridges”.
With `O=C(O)c1cc(O)nc(O)n1` [uracil-6-carboxylic acid] the “capacity to promote the formation” value [1] was “active”.
With `O=C1NC(=O)C(=NO)C(=O)N1` [violuric acid] the “capacity to promote the formation” value [1] was “Active”.
For glutathione in oxidized form [GSSG], the “oxidation of the thiol groups of reduced hair” value (hair; [3]) was “partial oxidation of the thiol groups”, the “conversion of the peptide” value (BB57) was “only takes place slowly” and the “influence on rate or yield” value (oxytocin, reduced (OxyR)) was “no influence on rate or yield”.
With potassium hexacyanoferrate the “effect of stable metal ion complex on cyclisation by alloxan” value (BB57; alloxan plus potassium hexacyanoferrate(II) or (III) (30 μM), Ellman's reagent) was “accelerating effect”.
